The results in this text go back to ChEMBL document CHEMBL5375948, “Development and Pharmacochemical Characterization Discover a Novel Brain-Permeable HDAC11-Selective Inhibitor with Therapeutic Potential by Regulating Neuroinflammation in Mice” (J Med Chem, 2023).

Experiment [1] concerns the target T1, Polyamine deacetylase HDAC10 (Homo sapiens, UniProt Q969S8).
T1 sequence (Q969S8 whole entry): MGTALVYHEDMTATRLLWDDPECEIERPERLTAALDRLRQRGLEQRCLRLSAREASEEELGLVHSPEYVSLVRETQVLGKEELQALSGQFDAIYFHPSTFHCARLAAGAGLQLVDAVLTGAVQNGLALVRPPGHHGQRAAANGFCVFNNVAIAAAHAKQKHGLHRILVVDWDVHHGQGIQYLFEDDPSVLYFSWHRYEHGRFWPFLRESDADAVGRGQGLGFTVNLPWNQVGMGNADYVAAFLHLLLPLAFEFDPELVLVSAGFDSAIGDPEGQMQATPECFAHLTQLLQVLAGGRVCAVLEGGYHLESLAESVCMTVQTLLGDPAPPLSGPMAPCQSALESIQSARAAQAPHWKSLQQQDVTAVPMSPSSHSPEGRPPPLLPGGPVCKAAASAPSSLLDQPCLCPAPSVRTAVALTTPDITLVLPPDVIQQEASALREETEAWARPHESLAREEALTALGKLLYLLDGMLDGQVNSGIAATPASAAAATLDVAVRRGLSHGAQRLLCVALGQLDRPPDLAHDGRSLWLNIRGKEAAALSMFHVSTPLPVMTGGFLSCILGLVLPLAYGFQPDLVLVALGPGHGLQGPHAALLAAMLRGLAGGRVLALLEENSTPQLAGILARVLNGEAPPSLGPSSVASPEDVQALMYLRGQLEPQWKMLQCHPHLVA
The experiment in a line: Inhibition of recombinant full-length human HDAC10 using FITC-H3K27(Ac)-NH2 as substrate by electrophoretic mobility shift assay.

Another experiment concerns the target Histone deacetylase 1 (Homo sapiens, UniProt Q13547). The experiment in a line: Inhibition of recombinant full-length human HDAC1 using FITC-H3K27(Ac)-NH2 as substrate by electrophoretic mobility shift assay.
A further experiment has as its target T2, Histone deacetylase 8 (Homo sapiens, UniProt Q9BY41).
T2 sequence (Q9BY41 whole entry): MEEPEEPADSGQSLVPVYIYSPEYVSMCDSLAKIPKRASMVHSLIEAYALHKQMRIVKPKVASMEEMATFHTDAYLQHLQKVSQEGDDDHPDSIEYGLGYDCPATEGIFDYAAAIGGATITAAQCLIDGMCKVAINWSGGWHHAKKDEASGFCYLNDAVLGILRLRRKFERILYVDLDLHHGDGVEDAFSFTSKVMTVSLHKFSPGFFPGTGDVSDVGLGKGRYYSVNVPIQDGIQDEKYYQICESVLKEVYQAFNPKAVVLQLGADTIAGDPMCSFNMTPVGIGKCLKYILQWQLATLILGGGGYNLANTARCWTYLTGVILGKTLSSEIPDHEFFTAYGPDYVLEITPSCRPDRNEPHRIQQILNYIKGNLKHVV
The experiment in a line: Inhibition of recombinant full-length human HDAC8 using FAM-RHKK(Ac)-NH2 as substrate by electrophoretic mobility shift assay.

In the next experiment the target is T3, Histone deacetylase 11 (Homo sapiens, UniProt Q96DB2).
T3 sequence (Q96DB2 whole entry): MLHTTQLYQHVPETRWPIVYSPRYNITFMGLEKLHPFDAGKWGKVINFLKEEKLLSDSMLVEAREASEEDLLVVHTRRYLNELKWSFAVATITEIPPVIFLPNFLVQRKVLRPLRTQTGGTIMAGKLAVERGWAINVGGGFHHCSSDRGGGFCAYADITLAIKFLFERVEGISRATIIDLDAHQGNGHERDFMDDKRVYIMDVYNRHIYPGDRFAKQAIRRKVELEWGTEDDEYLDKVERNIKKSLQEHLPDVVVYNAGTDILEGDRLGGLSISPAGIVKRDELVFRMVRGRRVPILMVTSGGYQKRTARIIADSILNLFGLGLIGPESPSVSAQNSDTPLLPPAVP
The experiment in a line: Inhibition of recombinant full-length human HDAC11 using FAM-RHKK (trifluor-Ac)-NH2 as substrate by electrophoretic mobility shift assay.

Experiment [2] addresses T4, Protein deacetylase HDAC6 (Homo sapiens, UniProt Q9UBN7).
T4 sequence (Q9UBN7 whole entry): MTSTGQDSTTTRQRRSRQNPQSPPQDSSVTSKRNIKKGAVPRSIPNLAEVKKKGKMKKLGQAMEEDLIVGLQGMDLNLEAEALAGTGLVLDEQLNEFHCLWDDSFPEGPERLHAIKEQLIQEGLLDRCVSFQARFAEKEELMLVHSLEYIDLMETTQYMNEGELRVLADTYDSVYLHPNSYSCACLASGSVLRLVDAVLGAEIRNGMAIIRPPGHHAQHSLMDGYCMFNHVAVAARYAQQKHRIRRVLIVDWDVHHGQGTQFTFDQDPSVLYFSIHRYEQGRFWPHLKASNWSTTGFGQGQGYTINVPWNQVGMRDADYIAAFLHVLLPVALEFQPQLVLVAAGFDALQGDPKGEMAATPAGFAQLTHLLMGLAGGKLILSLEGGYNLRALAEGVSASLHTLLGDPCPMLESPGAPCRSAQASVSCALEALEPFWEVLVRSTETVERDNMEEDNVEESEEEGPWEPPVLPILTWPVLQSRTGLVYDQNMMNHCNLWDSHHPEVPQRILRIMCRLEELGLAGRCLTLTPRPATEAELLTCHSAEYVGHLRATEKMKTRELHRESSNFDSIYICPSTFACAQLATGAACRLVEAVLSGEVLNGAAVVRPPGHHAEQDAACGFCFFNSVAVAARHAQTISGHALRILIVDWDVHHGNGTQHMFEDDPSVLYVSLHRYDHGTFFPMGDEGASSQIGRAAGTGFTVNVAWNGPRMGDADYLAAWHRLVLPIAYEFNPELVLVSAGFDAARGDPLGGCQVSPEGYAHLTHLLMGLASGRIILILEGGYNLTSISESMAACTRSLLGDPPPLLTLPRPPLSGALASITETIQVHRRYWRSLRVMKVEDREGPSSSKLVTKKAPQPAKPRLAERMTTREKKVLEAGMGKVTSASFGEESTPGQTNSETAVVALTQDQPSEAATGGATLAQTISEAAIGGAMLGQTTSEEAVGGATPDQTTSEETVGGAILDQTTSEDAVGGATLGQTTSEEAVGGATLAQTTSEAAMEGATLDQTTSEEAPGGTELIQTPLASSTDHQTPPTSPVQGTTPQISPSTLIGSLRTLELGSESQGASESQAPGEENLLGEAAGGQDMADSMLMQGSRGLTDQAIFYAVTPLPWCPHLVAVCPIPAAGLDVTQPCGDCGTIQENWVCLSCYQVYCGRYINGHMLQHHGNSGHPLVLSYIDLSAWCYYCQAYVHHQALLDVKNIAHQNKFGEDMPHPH
The experiment is described as follows: Inhibition of recombinant full-length human HDAC6 using FAM-RHKK(Ac)-NH2 as substrate by electrophoretic mobility shift assay.

The target of the next experiment is Histone deacetylase 2 (Homo sapiens, UniProt Q92769). The experiment in a line: Inhibition of recombinant full-length human HDAC2 using FITC-H3K27(Ac)-NH2 as substrate by electrophoretic mobility shift assay.
Histone deacetylase 2, sequence (Q92769 whole entry): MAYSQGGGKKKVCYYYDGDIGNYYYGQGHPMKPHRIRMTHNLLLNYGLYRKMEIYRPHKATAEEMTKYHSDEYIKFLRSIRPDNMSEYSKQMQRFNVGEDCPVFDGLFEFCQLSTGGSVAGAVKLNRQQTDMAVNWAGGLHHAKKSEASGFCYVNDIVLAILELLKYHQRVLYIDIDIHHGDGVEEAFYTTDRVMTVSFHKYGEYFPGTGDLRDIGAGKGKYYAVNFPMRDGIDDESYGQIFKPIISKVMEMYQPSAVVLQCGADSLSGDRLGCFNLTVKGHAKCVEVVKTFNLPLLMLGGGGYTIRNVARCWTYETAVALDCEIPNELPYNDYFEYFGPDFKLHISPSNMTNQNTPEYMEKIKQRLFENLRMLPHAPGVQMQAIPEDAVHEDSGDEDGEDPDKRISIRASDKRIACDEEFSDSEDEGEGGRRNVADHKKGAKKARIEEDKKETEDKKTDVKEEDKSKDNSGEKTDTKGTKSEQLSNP
A further experiment deals with Histone deacetylase 9 (Homo sapiens, UniProt Q9UKV0). The experiment in a line: Inhibition of recombinant full-length human HDAC9 using FAM-RHKK (trifluor-Ac)-NH2 as substrate by electrophoretic mobility shift assay.
Histone deacetylase 9, sequence (Q9UKV0 whole entry): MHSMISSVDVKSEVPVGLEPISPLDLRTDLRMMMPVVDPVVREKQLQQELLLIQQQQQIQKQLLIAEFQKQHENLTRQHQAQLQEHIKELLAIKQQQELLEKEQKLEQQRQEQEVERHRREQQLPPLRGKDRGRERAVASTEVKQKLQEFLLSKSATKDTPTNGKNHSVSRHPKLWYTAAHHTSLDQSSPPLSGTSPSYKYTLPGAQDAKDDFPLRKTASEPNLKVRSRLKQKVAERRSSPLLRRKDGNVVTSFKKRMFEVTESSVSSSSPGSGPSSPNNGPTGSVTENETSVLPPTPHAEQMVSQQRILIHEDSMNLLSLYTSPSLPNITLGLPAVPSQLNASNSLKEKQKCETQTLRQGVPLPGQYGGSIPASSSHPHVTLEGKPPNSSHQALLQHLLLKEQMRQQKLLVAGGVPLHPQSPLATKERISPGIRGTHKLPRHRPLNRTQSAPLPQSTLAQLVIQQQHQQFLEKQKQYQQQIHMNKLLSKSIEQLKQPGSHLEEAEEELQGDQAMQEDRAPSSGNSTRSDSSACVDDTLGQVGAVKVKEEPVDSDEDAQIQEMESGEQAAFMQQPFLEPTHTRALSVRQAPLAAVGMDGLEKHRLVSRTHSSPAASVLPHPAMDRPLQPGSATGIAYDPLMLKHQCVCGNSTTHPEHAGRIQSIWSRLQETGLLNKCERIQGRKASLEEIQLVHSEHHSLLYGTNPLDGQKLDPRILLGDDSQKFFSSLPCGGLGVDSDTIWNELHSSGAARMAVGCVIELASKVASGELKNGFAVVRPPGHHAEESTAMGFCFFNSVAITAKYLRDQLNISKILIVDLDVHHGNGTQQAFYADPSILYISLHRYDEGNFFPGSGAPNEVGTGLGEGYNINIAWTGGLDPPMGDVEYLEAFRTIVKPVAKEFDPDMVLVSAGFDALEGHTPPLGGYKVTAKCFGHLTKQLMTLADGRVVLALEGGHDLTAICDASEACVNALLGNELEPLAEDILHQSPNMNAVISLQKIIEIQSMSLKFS

Histone deacetylase 1, sequence (Q13547 whole entry): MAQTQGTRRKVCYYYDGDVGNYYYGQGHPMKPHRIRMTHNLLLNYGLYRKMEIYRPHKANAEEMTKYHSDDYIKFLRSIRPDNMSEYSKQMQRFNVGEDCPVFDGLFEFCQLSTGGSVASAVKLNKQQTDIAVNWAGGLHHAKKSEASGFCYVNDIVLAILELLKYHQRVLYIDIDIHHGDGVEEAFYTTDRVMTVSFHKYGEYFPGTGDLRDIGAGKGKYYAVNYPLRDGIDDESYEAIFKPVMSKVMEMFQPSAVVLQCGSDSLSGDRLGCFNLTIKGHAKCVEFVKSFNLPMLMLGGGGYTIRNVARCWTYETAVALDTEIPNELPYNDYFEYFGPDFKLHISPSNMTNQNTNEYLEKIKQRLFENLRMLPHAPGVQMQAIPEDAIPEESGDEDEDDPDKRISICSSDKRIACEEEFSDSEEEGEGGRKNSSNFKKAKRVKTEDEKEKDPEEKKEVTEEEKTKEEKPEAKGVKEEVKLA

For `O=C(NCC12C[C@H]3C[C@@H](C1)C[C@@H](C2)C3)c1ccc2c(ccn2Cc2ccc(C(=O)NO)c(Cl)c2)c1`, the IC50 was 9050 nM in experiment [1]; greater than 10000 nM at Histone deacetylase 1; 410 nM on Histone deacetylase 8; 140 nM at Histone deacetylase 11; 220 nM in experiment [2]; greater than 10000 nM on Histone deacetylase 2. In addition, the IC50 at Histone deacetylase 9 was 4530 nM.
